Measurements taken from publication PMC9143043, “Synthesis and Biological Evaluation of 5′-O-Fatty Acyl Ester Derivatives of 3′-Fluoro-2′,3′-dideoxythymidine as Potential Anti-HIV Microbicides” (Molecules, 2022).
pEC50, pIC50: −log10 of the molar value. “Also recorded” adds a separate entry of the source. Where two headings read alike, the source gives them in different places.

Columns and labels:
CCRF-CEM cells [1] = test: Real-time fluorescence microscopy in live cells; format: cell-based, human; conditions: 10 µM, 1 h
Experimental: Cells incubated with 10 µM of DMSO, FAM, 23 and 24 for 1 h were used for real time fluorescence microscopy using transmitted light microscopy equipped with a differential-interference contrast method and an Achroplan 40× objective.
The products were purified on a Phenomenex®Gemini 10 µm ODS reversed-phase column (2.1 × 25 cm) with a Hitachi HPLC system using a gradient increment in the acetonitrile (0.1%TFA) concentration from 0 to 100% in 45 min at a constant flow rate of 17 mL/min. The purity of the compounds was confirmed by using an analytical Hitachi analytical HPLC system on a C18 column (Grace Allsphere ODS 2–3 µ, 150 × 4.6 mm) using a gradient system (water:acetonitrile 30:70 v/v) at a constant flow rate of 1 mL/min with a UV detection at 265 nm. The chemical structures of the final products were characterized by nuclear magnetic resonance spectrometry (^1H NMR and ^13C NMR) determined on a Bruker NMR spectrometer (400 MHz, Daltonik, Bremen, Germany) and confirmed by a high-resolution PE Applied Biosystems Mariner API time-of-flight electrospray mass spectrometer (Waltham, MA, USA). Chemical shifts are reported in parts per millions (ppm). For cellular uptake studies, cells were analyzed by flow cytometry (FACSCalibur: Becton Dickinson, San Jose, CA, USA) using the FITC channel and CellQuest software 7.5.3 (Becton Dickinson, San Jose, CA, USA). […]

CCRF-CEM cells [2] = test: Cell viability study (trypan blue, Cellometer); format: cell-based, human; conditions: 10 µM, 24 h incubation
Experimental: Cell viability study was performed to analyze the effect of FAM, 23, and 24 on the live cells. The CCRF-CEM cells were incubated with 10 µM of the compounds and mixed with trypan blue (0.1%) to color the dead cells. The percentage of viability was calculated by using Cellometer Auto T.4 (Nexcelom Bioscience). It was observed that at least 80% of the cells were viable in the presence of the compounds in a 24 h incubation period (Supporting Materials, Figure S1).
(§1) Human T lymphoblastoid cells (CCRF-CEM, ATCC No. CCL-119) were grown to 70% confluency in a culture medium. CCRF-CEM cells were incubated with 10 µM of the compounds and mixed with trypan blue (0.1%) to color the dead cells. The percentage of viability was calculated by using a Cellometer Auto T.4 (Nexcelom Bioscience). The cell viability against the vaginal cells (VK-2/E6E7) was conducted according to the previously reported procedure. The effect of conjugates on the sperm viability and mobility was evaluated as described previously.

[3] = system: HIV-infected T4 lymphocytes; set-up: method as in PMID 9191015; conditions: read-out: EC50 against HIV-infected T4 lymphocytes; cited from earlier work
[4] = system: HIV-1 strain IIIB (lymphocytotropic strain); test: Single-round infection assay, cell-free X4 virus (lymphocytotropic strain); format: cell-based
Experimental: (§2) Anti-HIV activities of the compounds were evaluated according to the previously reported procedure. In summary, the HeLa (Human cervical carcinoma: ATCC CCL-2.1) cell line was used to measure the inactivation of both the cell-free virus preparations and virus-infected cell preparations. The cells were plated in culture plates 24 h prior to each experiment. Cell-free viral preparations of HIV-1 strains IIIB (lymphocytotropic strain) and BaL (monocytotropic strain) were used for the cell-free assay. For the cell-associated assay, the SulT1 cells were infected with IIIB virus 5 days prior to the experiment. Cell-free virus and virus-infected cells were mixed with different compounds and diluted to make different concentrations. The mixture was further diluted with the buffer and added to the HeLa cells.

HIV-1 = test: Anti-HIV activity overall (cell-free and cell-associated assays) and antiviral index; format: cell-based; conditions: for antiviral index, times better than AZT: versus AZT; for antiviral index, times better than FLT: versus FLT
Excerpt: Table 2, Table 3 and Table 4 illustrate the anti-HIV-1 activities against the cell-free, cell-associated, and multidrug-resistant virus and sperm inhibiting properties of the selected compounds. In summary, the anti-HIV activity of 5′-substituted derivatives of FLT and AZT (5–18) was dependent on the nature of the 5′-substituent. […] None of the other esters were active against cell-associated virus. […] The difference in the activity of fatty acyl derivatives of FLT compared to each other and FLT may be due to their differences in the rate of uptake and intracellular hydrolysis.
By design, the ester moiety in the conjugates needs to be hydrolyzed to render parent nucleosides and fatty acids to produce anti-HIV activity. The anti-HIV activities of 5′-O-ether substituted FLT and AZT (3 and 4, Scheme 2) with a stable tetradecanyl (myristyl) group were compared with hydrolyzable 5′-O-ester substituted FLT and AZT (6 and 7).
as §2

[5] = system: HIV-1 strain BaL (monocytotropic strain); test: Single-round infection assay, cell-free R5 virus (monocytotropic strain); format: cell-based; conditions: Human immunodeficiency virus 1, BAL
Experimental: as §2

[6] = system: cell-associated HIV-1 IIIB (infected SulT1 cells); test: Cell-associated transmission assay (IIIB); format: cell-based; conditions: for pEC50: Human immunodeficiency virus 1, IIIB
Experimental: as §2

[7] = system: human vaginal cells (VK-2/E6E7); test: Vaginal cell cytotoxicity (MTS assay); format: cell-based; conditions: 6 h incubation; 31-1000 µg/mL
Experimental: A commercially used spermicidal agent (N-9) and conjugate cytotoxicity was evaluated using immortalized human vaginal cells (VK-2/E6E7). […] Observed cytotoxicity from N-9 could be correlated with the generation of higher levels of cytokines by N-9.
as §1
Figure 2 (A) Dose–response curves of the vaginal cytotoxicity in VK-2 cells (MTS assay) for 5, 6, 8, and N-9 after 6 h incubations. (B) Proinflammatory cytokine (IL-1α) production in the VK-2 cells (ELISA) after a 6 h incubation in the presence of 5, 6, 8, and N-9.

Cytotoxicity assay (MTS) = format: cell-based; conditions: human, HeLa cells (ATCC CCL-2.1)
sperm = test: Spermicidal activity (sperm viability and motility); format: cell-based; conditions: abstract; versus N-9 positive control
Experimental: In this study, several fatty acyl conjugates of nucleosides (5–8, 10–12, 15, and 16) were tested for their spermicidal activities. […] Detailed data analysis is available in the Supplementary Materials (Figure S2).
as §1

[8] = system: HIV-1 94US3393IN (B-Wild Type); test: PBMC multi-round infection assay, clinical isolate 94US3393IN; format: cell-based; conditions: Human immunodeficiency virus 1
Experimental: (§3) Based on a preliminary screening, conjugates 5 and 8 were evaluated for their ability to inhibit a drug-resistant virus in a peripheral blood mononuclear cell (PBMC) assay. In this assay, FLT, 5, and 8 were tested against B- and C-wild type and A-17 and 4755–5 multidrug-resistant (MDR) clinical isolates of HIV-1, where compounds were incubated with PBMCs for 6 h and then washed off before the addition of the virus and further culture for 7 days.
(§4) For the assessment of compounds against the wild type (WT; R5; clones = 94US3393IN [B subtype] and 98USMSC5016 [C subtype]) and drug-resistant (clones = 4755−5 and A17) HIV-1 clinical isolates, PHA-P stimulated cells from at least two normal donors were pooled, diluted in fresh media, and plated in the interior wells of a 96-well round-bottom microplate. Pooling PBMCs from more than one donor was used to minimize the variability observed between the individual donors, which results from the quantitative and qualitative differences in HIV infection and overall response to the PHA and IL-2 of primary lymphocyte populations. Each plate contained virus/cell control wells (cells + virus), experimental wells (drug + cells + virus), and compound control wells (drug + media, no cells, necessary for MTS monitoring of cytotoxicity). Test drug dilutions were prepared in microtiter tubes, and each concentration was placed in appropriate wells. Following the addition of the drug dilutions to the PBMCs, a predetermined dilution of virus stock was then placed in each test well (final MOI ≅ 0.1). Because HIV-1 is not cytopathic to PBMCs, the same assay plate can be used for both the antiviral efficacy and cytotoxicity measurements. Compounds were incubated with virus and cells in a 96-well format for 6 h. The cells were then washed by removing 75% of the medium (150 μL) and replacing it with 150 μL of fresh (no drug) medium. The plates were then centrifuged (∼200 g) for 10 min, after which 150 μL of the medium was removed, and an additional 150 μL of fresh medium was added to each well and further incubated for 6 days or until peak reverse transcriptase (RT) activity was detected. A microtiter plate-based RT reaction was utilized. Incorporated radioactivity (counts per minute, CPM) was quantified using standard liquid scintillation techniques. Compound IC50 (50%, inhibition of virus replication) was calculated using statistical software and regression analysis. A cellular uptake study was conducted for fluorescence conjugates 23 and 24 using a previously published procedure with minor modifications. All of the experiments were conducted in triplicate.

HIV-1 4755-5 MDR (B-MDR) = test: PBMC multi-round infection assay, resistant isolate 4755-5; format: cell-based; conditions: for pIC50 / IC90: Human immunodeficiency virus 1, PBMC
Experimental: as §3, §4

[9] = system: HIV-1 98USMSC5016 (C-Wild Type); test: PBMC multi-round infection assay, clinical isolate 98USMSC5016; format: cell-based; conditions: Human immunodeficiency virus 1
Experimental: as §3, §4

HIV-1 A-17 MDR (B-NNRTI) = test: PBMC multi-round infection assay, resistant isolate A-17; format: cell-based; conditions: for pIC50 / IC90: Human immunodeficiency virus 1, PBMC
Experimental: as §3, §4

[10] = Human immunodeficiency virus 1, IIIB, read-out: (X4) EC50, Table 2, single-round infection assay
[11] = read-out: (CA) EC50, Table 2, cell-associated transmission assay (IIIB)
[12] = read-out: (CA) EC50, Table 3, cell-to-cell transmission assay (IIIB)
[13] = Table 2, MTS, 50% effective concentration
[14] = Table 3, conjugates vs physical mixtures

| Molecule | pEC50 [4, 10] | anti-HIV activity (in words) (HIV-1) | antiviral index, times better than AZT (HIV-1) [times] | antiviral index, times better than FLT (HIV-1) [times] | pEC50 [6, 11] | pEC50 [6, 12] | cytotoxicity to vaginal cells [7] | pEC50 (Cytotoxicity assay (MTS); [13]) | pEC50 (Cytotoxicity assay (MTS); [14]) | effect on sperm viability (sperm) | pIC50 [8] | IC90 [8] [µM] | pIC50 (HIV-1 4755-5 MDR (B-MDR)) | IC90 (HIV-1 4755-5 MDR (B-MDR)) [µM] | pIC50 [9] | IC90 [9] [µM] | pIC50 (HIV-1 A-17 MDR (B-NNRTI)) | IC90 (HIV-1 A-17 MDR (B-NNRTI)) [µM] | other results |
| --- | --- | --- | --- | --- | --- | --- | --- | --- | --- | --- | --- | --- | --- | --- | --- | --- | --- | --- | --- |
| 5(6)-carboxyfluorescein [FAM] |  |  |  |  |  |  |  |  |  |  |  |  |  |  |  |  |  |  | cell fluorescence (real time fluorescence microscopy) (CCRF-CEM cells [1]): no significant fluorescence; viable cells (CCRF-CEM cells [2]): at least 80% |
| CCSCCCCCCCCCCCC(=O)O [12-thioethyldodecanoic acid] |  |  |  |  |  |  |  |  |  |  |  |  |  |  |  |  |  |  | pEC50 [3]: 5.03 |
| CCCCCCCCCCCCCC(=O)OC[C@H]1O[C@@H](n2cc(C)c(=O)[nH]c2=O)C[C@@H]1F [Compound 6, 5′-O-(myristoyl)-3′-fluoro-2′,3′-dideoxythymidine] | ≥ 6.00 | significant anti-HIV activity at noncytotoxic concentrations | > 30 | > 4 | 5.19 | 5.19 | did not show significant cytotoxic effects | 3.22 | 3.22 | did not alter vaginal cell and sperm viability |  |  |  |  |  |  |  |  | pEC50 ([4]; Human immunodeficiency virus 1, IIIB, read-out: (X4) EC50, Table 3, viral entry inhibition assay): 6.15; pEC50 ([5]; read-out: (R5) EC50, Table 2, single-round infection assay): ≥ 6.00; pEC50 ([5]; read-out: (R5) EC50, Table 3, viral entry inhibition assay): 5.96 |
| CCSCCCCCCCCCCCC(=O)OC[C@H]1O[C@@H](n2cc(C)c(=O)[nH]c2=O)C[C@@H]1F [Compound 8, 3′-fluoro-2′,3′-dideoxy-5′-O-(12-thioethyldodecanoyl)thymidine] | ≥ 6.00 | significant anti-HIV activity at noncytotoxic concentrations | > 30 | > 4 | 5.64 |  | did not show significant cytotoxic effects | < 2.70 |  | did not alter vaginal cell and sperm viability | 9.22 | 0.0103 | 6.95 | 0.662 | 9.00 | 0.0082 | 7.87 | 0.0457 | pEC50 ([4]; read-out: (X4) EC50, Table 2, single-round infection assay): 6.00; fold more potent than FLT against 4755-5 (HIV-1 4755-5 MDR (B-MDR); versus FLT IC50): equally active; fold more potent than FLT against A-17 (HIV-1 A-17 MDR (B-NNRTI); versus FLT IC50): twice as active |
| Cc1cn([C@H]2C[C@H](F)[C@@H](CO)O2)c(=O)[nH]c1=O [FLT, 3′-fluoro-2′,3′-dideoxythymidine] |  |  |  |  | < 3.39 | < 3.39 |  | < 3.39 | < 3.39 |  | 8.70 | 0.0204 | 6.97 | 1.06 | 8.70 | 0.0123 | 7.59 | 0.0872 | pEC50 ([4]; Human immunodeficiency virus 1, IIIB, Table 2, single-round infection assay, read-out: (X4) EC50): 6.10; pEC50 ([4]; Human immunodeficiency virus 1, IIIB, Table 3, viral entry inhibition assay, read-out: (X4) EC50): 6.10; pEC50 ([5]; Table 2, single-round infection assay, read-out: (R5) EC50): 6.40; pEC50 ([5]; Table 3, viral entry inhibition assay, read-out: (R5) EC50): 6.40; activity against cell-associated virus (in words) [6]: only inconsistently and moderately active; also recorded: not active at all |
